Data reported in PubChem BioAssay AID288 (DTP/NCI, 2004).
Where “and” joins values, the source holds several entries; their conditions need not be identical. Equal entries are not always repeated. Records with an inconclusive call do not appear.

Tested on: BDF1 mice, M5076 sarcoma s.c., survival/tumor T/C
Assay: NCI In Vivo Anticancer Drug Screen. Data for tumor model Sarcoma M5076 (subcutaneous) in B6D2F1 (BDF1) mice
Description: The antitumor activity of compounds was measured in mice bearing transplantable tumors. Survival or tumor size were measured and the results are expressed as the measurement made in the treated group (T) divided by the measurement made in the vehicle treated control group (C). The tumor model used in this assay is Sarcoma M5076 (subcutaneous) in B6D2F1 (BDF1) mice

[1] = endpoint: median survival time, dose: 50.0 mg/kg/injection, schedule: Q01DX009 (ip), vehicle: saline with Tween-80, higher = longer survival
[2] = endpoint: median survival time, dose: 100.0 mg/kg/injection, schedule: Q01DX009 (ip), vehicle: saline with Tween-80, higher = longer survival
[3] = endpoint: median survival time, dose: 200.0 mg/kg/injection, schedule: Q01DX009 (ip), vehicle: saline with Tween-80, higher = longer survival
[4] = endpoint: median tumor weight (est.), dose: 50.0 mg/kg/injection, schedule: Q01DX009 (ip), vehicle: saline with Tween-80, higher = larger tumour
[5] = endpoint: median tumor weight (est.), dose: 200.0 mg/kg/injection, schedule: Q01DX009 (ip), vehicle: saline with Tween-80, higher = larger tumour

Q: With `CNNCc1ccc(C(=O)NC(C)C)cc1` as the compound, how does the T/C (endpoint: median survival time, dose: 44.0 mg/kg/injection, schedule: Q04DX006 (ip), vehicle: saline, higher = longer survival) read?
A: 118 % of control

Q: What about the T/C (endpoint: median survival time, dose: 88.0 mg/kg/injection, schedule: Q02DX033 (ip), vehicle: saline, higher = longer survival) of the same compound?
A: 214 % of control

Q: And the T/C (endpoint: median survival time, dose: 88.0 mg/kg/injection, schedule: Q04DX006 (ip), vehicle: saline, higher = longer survival)?
A: 151 % of control

Q: What about the T/C (endpoint: median survival time, dose: 176.0 mg/kg/injection, schedule: Q02DX033 (ip), vehicle: saline, higher = longer survival) of the same compound?
A: 92 % of control

Q: And the T/C (endpoint: median survival time, dose: 176.0 mg/kg/injection, schedule: Q04DX006 (ip), vehicle: saline, higher = longer survival)?
A: 216 % of control

Q: And the T/C (endpoint: median survival time, dose: 352.0 mg/kg/injection, schedule: Q04DX006 (ip), vehicle: saline, higher = longer survival)?
A: 179 % of control

Q: Which results are given for `COc1ccc(Cl)cc1NC(=O)NNC(=O)C(=O)Nc1ccc(F)cc1`?
A: T/C [1]: 106 % of control; T/C [2]: 106 % of control; T/C [3]: 113 % of control; T/C [4]: 87 % of control; T/C [5]: 115 % of control

Q: For `Cc1ccc(S(=O)(=O)N/N=C/C(Br)=C(/Br)C(=O)O)cc1`, which T/C (endpoint: median survival time, dose: 0.62 mg/kg/injection, schedule: Q04DX003 (ip), vehicle: saline, higher = longer survival) is on record?
A: 99 % of control

Q: What about the T/C (endpoint: median survival time, dose: 1.25 mg/kg/injection, schedule: Q04DX003 (ip), vehicle: saline, higher = longer survival) of the same compound?
A: 101 % of control

Q: And the T/C (endpoint: median survival time, dose: 2.5 mg/kg/injection, schedule: Q04DX003 (ip), vehicle: saline, higher = longer survival)?
A: 99 % of control and 96 % of control

Q: And the T/C (endpoint: median survival time, dose: 5.0 mg/kg/injection, schedule: Q04DX003 (ip), vehicle: saline, higher = longer survival)?
A: 109 % of control and 92 % of control

Q: And the T/C (endpoint: median survival time, dose: 7.5 mg/kg/injection, schedule: Q04DX003 (ip), vehicle: saline, higher = longer survival)?
A: 83 % of control

Q: What about the T/C (endpoint: median survival time, dose: 11.3 mg/kg/injection, schedule: Q04DX003 (ip), vehicle: saline, higher = longer survival) of the same compound?
A: 88 % of control

Q: Which T/C [1] does the source give for `CC(=O)Nc1ccc(S(=O)(=O)NNC(=O)C(=O)Nc2cccc(Cl)c2)cc1` here?
A: 105 % of control

Q: And the T/C [2]?
A: 98 % of control

Q: And the T/C [3]?
A: 86 % of control

Q: What about the T/C [4] of the same compound?
A: 113 % of control

Q: What about the T/C (endpoint: median tumor weight (est.), dose: 100.0 mg/kg/injection, schedule: Q01DX009 (ip), vehicle: saline with Tween-80, higher = larger tumour) of the same compound?
A: 108 % of control

Q: What about the T/C [5] of the same compound?
A: 92 % of control

Q: `Cc1nc(N)nc(N)c1-c1ccc(Cl)c(Cl)c1` was tested. Which T/C (endpoint: median survival time, dose: 1.5 mg/kg/injection, schedule: Q01DX009 (ip), vehicle: normal media, higher = longer survival) did it give?
A: 105 % of control

Q: `O=C1CC(Cl)(CS(F)(F)(F)(F)F)O1` (stereo not given) was tested. Which T/C [1] did it give?
A: 100 % of control

Q: And the T/C [4]?
A: 56 % of control

Q: Which T/C (endpoint: median survival time, dose: 0.06 mg/kg/injection, schedule: Q01DX009 (ip), vehicle: saline + alcohol, higher = longer survival) does the source give for `COC1=C(C)C(=O)C2=C(C1=O)C(CO)N1C(C#N)C3CC4C(C1C2N1CCOC41)N3C` (stereo not given) here?
A: 100 % of control

Q: What about the T/C (endpoint: median survival time, dose: 0.13 mg/kg/injection, schedule: Q01DX009 (ip), vehicle: saline + alcohol, higher = longer survival) of the same compound?
A: 96 % of control

Q: And the T/C (endpoint: median survival time, dose: 0.25 mg/kg/injection, schedule: Q01DX009 (ip), vehicle: saline + alcohol, higher = longer survival)?
A: 91 % of control

Q: And the T/C (endpoint: median survival time, dose: 0.5 mg/kg/injection, schedule: Q01DX009 (ip), vehicle: saline + alcohol, higher = longer survival)?
A: 106 % of control

Q: And the T/C (endpoint: median tumor weight (est.), dose: 0.06 mg/kg/injection, schedule: Q01DX009 (ip), vehicle: saline + alcohol, higher = larger tumour)?
A: 103 % of control

Q: And the T/C (endpoint: median tumor weight (est.), dose: 0.13 mg/kg/injection, schedule: Q01DX009 (ip), vehicle: saline + alcohol, higher = larger tumour)?
A: 153 % of control

Q: And the T/C (endpoint: median tumor weight (est.), dose: 0.25 mg/kg/injection, schedule: Q01DX009 (ip), vehicle: saline + alcohol, higher = larger tumour)?
A: 95 % of control

Q: What about the T/C (endpoint: median tumor weight (est.), dose: 0.5 mg/kg/injection, schedule: Q01DX009 (ip), vehicle: saline + alcohol, higher = larger tumour) of the same compound?
A: 80 % of control

Q: `OC(C1CO1)C(O)C1CO1` (stereo not given) was tested. Which T/C (endpoint: mean tumor weight, dose: 1.0 mg/kg/injection, schedule: Q02DX011 (ip), vehicle: saline, higher = larger tumour) did it give?
A: 58 % of control

Q: And the T/C (endpoint: mean tumor weight, dose: 2.0 mg/kg/injection, schedule: Q02DX011 (ip), vehicle: saline, higher = larger tumour)?
A: 10 % of control and 12 % of control

Q: And the T/C (endpoint: median survival time, dose: 2.0 mg/kg/injection, schedule: Q01DX009 (ip), vehicle: saline, higher = longer survival)?
A: 122 % of control

Q: And the T/C (endpoint: median tumor weight (est.), dose: 1.0 mg/kg/injection, schedule: Q02DX011 (ip), vehicle: saline, higher = larger tumour)?
A: 67 % of control

Q: And the T/C (endpoint: median tumor weight (est.), dose: 2.0 mg/kg/injection, schedule: Q01DX009 (ip), vehicle: saline, higher = larger tumour)?
A: 29 % of control

Q: What about the T/C (endpoint: median tumor weight (est.), dose: 2.0 mg/kg/injection, schedule: Q02DX011 (ip), vehicle: saline, higher = larger tumour) of the same compound?
A: 1 % of control and 8 % of control
